Source: patent US10100056B2, “SHIP1 modulators and methods related thereto” (Aquinox Pharmaceuticals (Canada) Inc., priority 2013, dated 2018)
Marks after values point to notes of the source that are not given here.

Molecular target: T1, His-hSHIP1 enzyme (Homo sapiens, UniProt Q92835)
T1 construct: His
T1 sequence (Q92835 1-1189): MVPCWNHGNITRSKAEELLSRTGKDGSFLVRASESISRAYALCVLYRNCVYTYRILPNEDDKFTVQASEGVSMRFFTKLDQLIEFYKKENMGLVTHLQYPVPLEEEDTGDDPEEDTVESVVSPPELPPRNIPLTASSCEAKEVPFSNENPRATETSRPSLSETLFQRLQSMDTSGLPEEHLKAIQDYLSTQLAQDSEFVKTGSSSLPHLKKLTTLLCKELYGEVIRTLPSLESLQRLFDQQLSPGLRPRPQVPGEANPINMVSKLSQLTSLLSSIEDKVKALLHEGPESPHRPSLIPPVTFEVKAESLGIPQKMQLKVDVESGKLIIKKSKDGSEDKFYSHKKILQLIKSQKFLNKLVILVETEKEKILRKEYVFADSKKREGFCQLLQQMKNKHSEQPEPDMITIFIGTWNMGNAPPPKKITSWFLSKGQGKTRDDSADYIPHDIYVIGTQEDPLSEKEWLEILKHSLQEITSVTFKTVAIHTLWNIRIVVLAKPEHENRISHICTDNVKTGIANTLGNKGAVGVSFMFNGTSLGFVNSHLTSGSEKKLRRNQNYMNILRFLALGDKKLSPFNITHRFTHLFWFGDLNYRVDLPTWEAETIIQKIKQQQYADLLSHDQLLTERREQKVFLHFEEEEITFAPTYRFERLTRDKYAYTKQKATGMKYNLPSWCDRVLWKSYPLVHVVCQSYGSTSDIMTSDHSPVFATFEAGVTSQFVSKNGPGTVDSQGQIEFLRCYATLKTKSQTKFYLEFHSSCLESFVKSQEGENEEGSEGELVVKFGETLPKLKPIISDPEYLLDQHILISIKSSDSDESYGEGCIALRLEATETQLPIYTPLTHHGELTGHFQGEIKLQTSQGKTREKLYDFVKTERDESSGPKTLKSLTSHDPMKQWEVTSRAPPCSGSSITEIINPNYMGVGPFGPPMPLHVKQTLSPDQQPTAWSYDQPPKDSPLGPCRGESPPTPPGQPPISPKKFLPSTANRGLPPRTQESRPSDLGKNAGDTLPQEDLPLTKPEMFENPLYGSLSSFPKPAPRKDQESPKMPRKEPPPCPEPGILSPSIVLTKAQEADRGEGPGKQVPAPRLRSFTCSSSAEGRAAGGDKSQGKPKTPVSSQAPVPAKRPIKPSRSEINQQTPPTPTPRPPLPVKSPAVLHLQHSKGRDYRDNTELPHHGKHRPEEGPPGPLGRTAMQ
Test: His-hSHIP1 activity (phosphatase assay, IP4 substrate, Biomol Green)
Type: biochemical
Set-up: key to Scoring, Approach 2 (Initial velocity Ratio): +++: higher than reference or reference - 15%; ++: reference - 16% to reference - 30%; +: reference - 31% or lower; −: inhibitor
Details: for Scoring, Approach 2 (Initial velocity Ratio): second approach: ratio of initial velocities IP4 25/250 μM compared with reference compound, values without asterisk
Procedure: Test compounds are dissolved in 95% ethanol to form stock solutions. Before screening, the stock solutions are diluted with Phosphatase Assay Buffer (20 mM Tris-HCL, 10 mM MgCl2 pH 7.5, 0.02% Tween 20) to form working assay solutions that contain 10% ethanol. The assay is carried out on 96-well microtiter plates using a modified procedure of that reported by Ong et al., Blood 110, 1942-1949, 2007 and Yang et al., Org Lett 7, 1073-1076, 2005, both of which references are incorporated herein by reference in their entirety.
Data were generated by one of two variant methods. Test compounds are screened by one of two approaches described as follows. In the first approach, each reaction contains 5 μL of His-hSHIP1 enzyme (5-20 ng), 10 μL of the substrate, 1,3,4,5-inositol tetrakisphosphate (IP4; 50 μM final), 5 μL of Phosphatase Assay Buffer, and 5 µL of test compound at various concentrations in 10% ethanol (0-300 μM final). Control blanks are also prepared by replacing His-hSHIP1 enzyme, IP4, or test compounds with Phosphatase Assay Buffer. After adding the reaction components in a 96-well microtiter plate on ice, the reaction is mixed by briefly shaking the plate vigorously. The reaction is then incubated at 37° C. for 15 min with gentle shaking followed by addition of 100 μL of Biomol Green Reagent (BIOMOL, PA, USA) to terminate the reaction. The free phosphate released from IP4 by His-hSHIP1 binds to the Biomol Green Reagent, which turns the dye to green color. After incubating the mixture for 20 min at room temperature for color development, the absorbance is read with SpectraMax Plus 96-well plate reader (Molecular Devices, Sunnyvale, Calif., USA) at a wavelength of 650 nm.
In the second approach, a master mix is prepared that contains 50 μL of His-hSHIP1 enzyme (0.4-1.6 ng/μL final), 25 μL of the substrate, IP4 (25 or 250 μM final), and 50 μL of test compound in 3.3% ethanol (100 μL final). Control blanks are also prepared by replacing His-hSHIP1 enzyme, IP4, or test compounds with Phosphate Assay Buffer. […] Each reaction component is preincubated at 37° C. for 30 min before adding to a 96-well microtiter plate. The master mix is then incubated at 37° C. At time 0, 20, and 30 min, 25 μL of the master mix is removed and transferred to a new 96-well microtiter plate, to which 100 μL of Biomol Green Reagent is added to stop the reaction. After incubating the mixture for 20 min at room temperature for color development, the absorbance is read with SpectraMax Plus 96-well plate reader at a wavelength of 650 nm. Phosphate released is plotted against time to calculate the initial velocities (i.e., slope of the graph) at each IP4 concentration. The initial velocities are baseline corrected and the ratio of initial velocities (IP425/IP4250) is calculated and used to rate the test compounds.

SMILES | Scoring, Approach 2 (Initial velocity Ratio) | Scoring, Approach 1 (% increase relative to background) (first approach: IP4 50 μM, test compound 0-300 μM, values marked with asterisk)
C=C1CC[C@H]2[C@H](Cn3cccn3)[C@@H]([C@@]3(C)CC[C@H](O)C[C@@H]3CO)CC[C@]12C [Cpd. No. 26, (1S,3S,4R)-4-((3aS,4R,5S,7aS)-4-((1H-pyrazol-1-yl)methyl)-7a-methyl-1-methyleneoctahydro-1H-inden-5-yl)-3-(hydroxymethyl)-4-methylcyclohexanol] | ++ | 
C=C1CC[C@H]2[C@H](CNCc3ccc4c(c3)OC(F)(F)O4)[C@@H]([C@@]3(C)CC[C@H](O)C[C@@H]3CO)CC[C@]12C [Cpd. No. 37, (1S,3S,4R)-4-((3aS,4R,5S,7aS)-4-(((2,2-difluorobenzo[d][1,3]dioxol-5-yl)methylamino)methyl)-7a-methyl-1-methyleneoctahydro-1H-inden-5-yl)-3-(hydroxymethyl)-4-methylcyclohexanol] | ++ | 
C=C1CC[C@H]2[C@H](CCN(Cc3ccc(OC)cc3)Cc3ccc(OC)cc3)[C@@H]([C@@]3(C)CC[C@H](O)C[C@@H]3O)CC[C@]12C [Cpd. No. 43, (1S,3S,4R)-4-((3aS,4S,5S,7aS)-4-(2-(bis(4-methoxybenzyl)amino)ethyl)-7a-methyl-1-methyleneoctahydro-1H-inden-5-yl)-4-methylcyclohexane-1,3-diol] | ++ | 
C=C1CC[C@H]2[C@H](CCNCc3ccc(OC)cc3)[C@@H]([C@@]3(C)CC[C@H](O)C[C@@H]3O)CC[C@]12C [Cpd. No. 44, (1S,3S,4R)-4-((3aS,4S,5S,7aS)-4-(2-(4-methoxybenzylamino)ethyl)-7a-methyl-1-methyleneoctahydro-1H-inden-5-yl)-4-methylcyclohexane-1,3-diol] | ++ | 
C=C1CC[C@H]2[C@H](CCNCc3ccc4c(c3)OCO4)[C@@H]([C@@]3(C)CC[C@H](O)C[C@@H]3O)CC[C@]12C [Cpd. No. 45, (1S,3S,4R)-4-((3aS,4S,5S,7aS)-4-(2-(benzo[d][1,3]dioxol-5-ylmethylamino)ethyl)-7a-methyl-1-methyleneoctahydro-1H-inden-5-yl)-4-methylcyclohexane-1,3-diol] | − | 
C=C1CC[C@H]2[C@H](CN)[C@@H]([C@@]3(C)CC[C@H](O)C[C@@H]3CN)CC[C@]12C [Cpd. No. 47, (1S,3S,4R)-3-(aminomethyl)-4-((3aS,4R,5S,7aS)-4-(aminomethyl)-7a-methyl-1-methyleneoctahydro-1H-inden-5-yl)-4-methylcyclohexanol] | + | 
C=C1CC[C@H]2[C@H](O)[C@@H]([C@@]3(C)CC[C@H](O)C[C@@H]3CCn3cccc3)CC[C@]12C [Cpd. No. 52, (3aR,4R,5R,7aS)-5-((1S,2S,4S)-2-(2-(1H-pyrrol-1-yl)ethyl)-4-hydroxy-1-methylcyclohexyl)-7a-methyl-1-methyleneoctahydro-1H-inden-4-ol] | − | 

Further lines, results first:

Scoring, Approach 2 (Initial velocity Ratio) | Scoring, Approach 1 (% increase relative to background) (first approach: IP4 50 μM, test compound 0-300 μM, values marked with asterisk) | SMILES
− |  | C=C1CC[C@H]2[C@H](O)[C@@H]([C@@]3(C)CC[C@H](O)C[C@@H]3CCOc3cnccn3)CC[C@]12C [Cpd. No. 56, (3aR,4R,5R,7aS)-5-((1S,2S,4S)-4-hydroxy-1-methyl-2-(2-(pyrazin-2-yloxy)ethyl)cyclohexyl)-7a-methyl-1-methyleneoctahydro-1H-inden-4-ol]
++ |  | C=C1CC[C@H]2[C@H](COCc3ccccn3)[C@@H]([C@@]3(C)CC[C@H](O)C[C@@H]3CO)CC[C@]12C [Cpd. No. 61, (1S,3S,4R)-3-(hydroxymethyl)-4-methyl-4-((3aS,4R,5S,7aS)-7a-methyl-1-methylene-4-((pyridin-2-ylmethoxy)methyl)octahydro-1H-inden-5-yl)cyclohexanol]
 | ++* (50 ≤ x < 65) | C=C1CC[C@H]2[C@H](CO)[C@@H]([C@@]3(C)CC[C@H](N)C[C@@H]3CO)CC[C@]12C [Cpd. No. 63, ((1S,2R,5S)-5-amino-2-((3aS,4R,5S,7aS)-4-(hydroxymethyl)-7a-methyl-1-methyleneoctahydro-1H-inden-5-yl)-2-methylcyclohexyl)methanol]
++ |  | CC1(C)C=CC2=C1CC[C@H]([C@@]1(C)CC[C@H](O)C[C@@H]1CO)[C@H]2CO [Cpd. No. 65, (1S,3S,4R)-3-(hydroxymethyl)-4-((4R,5S)-4-(hydroxymethyl)-1,1-dimethyl-4,5,6,7-tetrahydro-1H-inden-5-yl)-4-methylcyclohexanol]
+ |  | CC1(C)C2=C(C[C@H]1O)[C@H](CO)[C@@H]([C@@]1(C)CC[C@H](O)C[C@@H]1CO)CC2 [Cpd. No. 66, (2R,4R,5S)-5-((1R,2S,4S)-4-hydroxy-2-(hydroxymethyl)-1-methylcyclohexyl)-4-(hydroxymethyl)-1,1-dimethyl-2,3,4,5,6,7-hexahydro-1H-inden-2-ol]
++ |  | C=C1CC[C@H]2[C@H](COCc3ccccc3)[C@@H]([C@@]3(C)CC[C@H](O)C[C@@H]3CO)CC[C@]12C [Cpd. No. 67, (1S,3S,4R)-4-((3aS,4R,5S,7aS)-4-(benzyloxymethyl)-7a-methyl-1-methyleneoctahydro-1H-inden-5-yl)-3-(hydroxymethyl)-4-methylcyclohexanol]
+ |  | C=C1CC[C@H]2[C@H](CNC(=O)c3cccnc3)[C@@H]([C@@]3(C)CC[C@H](O)C[C@@H]3CO)CC[C@]12C [Cpd. No. 69, N-(((3aS,4R,5S,7aS)-5-((1R,2S,4S)-4-hydroxy-2-(hydroxymethyl)-1-methylcyclohexyl)-7a-methyl-1-methyleneoctahydro-1H-inden-4-yl)methyl)nicotinamide]
+ |  | C=C1CC[C@H]2[C@H](CNC(=O)NCc3ccccc3)[C@@H]([C@@]3(C)CC[C@H](O)C[C@@H]3CO)CC[C@]12C [Cpd. No. 91, 1-benzyl-3-(((3aS,4R,5S,7aS)-5-((1R,2S,4S)-4-hydroxy-2-(hydroxymethyl)-1-methylcyclohexyl)-7a-methyl-1-methyleneoctahydro-1H-inden-4-yl)methyl)urea]
